From BindingDB's records for doi:10.3109/14756366.2011.584535 (Balikesir University, 2012)

Tests used:
[1] = target: Carbonic anhydrase 1 (Homo sapiens, UniProt P00915); assay: CA Enzyme Assay
Method: (§1) CA activity was measured by the Maren method which is based on determination of the time required for the pH to decrease from 10.0 to 7.4 due to CO2 hydration [Maren et al., J. Pharm. Exp. Ther., 130:2629-2634].

[2] = target: Carbonic anhydrase 2 (Homo sapiens, UniProt P00918); assay: CA Enzyme Assay
Method: as §1

Sequence of Carbonic anhydrase 1 (P00915 whole entry): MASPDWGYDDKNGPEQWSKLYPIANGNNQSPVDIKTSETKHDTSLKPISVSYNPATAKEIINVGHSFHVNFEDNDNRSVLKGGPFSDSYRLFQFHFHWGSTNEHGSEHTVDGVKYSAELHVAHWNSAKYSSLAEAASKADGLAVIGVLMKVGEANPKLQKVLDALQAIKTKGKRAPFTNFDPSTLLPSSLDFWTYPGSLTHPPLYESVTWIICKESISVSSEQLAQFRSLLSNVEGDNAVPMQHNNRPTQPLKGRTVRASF

Structure (SMILES) | IC50 [1] | IC50 [2]
CC1CCCC(O)CCCCCc2cc(O)cc(O)c2C(=O)O1 (stereo unspecified) [Zeranol (4)] | 898 µM | 101 µM
CC12C=CC3=C4CCC(=O)C=C4CCC3C1CCC2O (stereo unspecified) [Trenbolone (2)] | 55 µM | 159 µM
CC/C(=C(/CC)c1ccc(O)cc1)c1ccc(O)cc1 | 94 µM | 89 µM
